One data set deals with L-proline-4-hydroxylase (Dactylosporangium salmoneum, UniProt A0ABP5TRQ3). Description: Substrate omission and addition tests on the enzyme reaction (indispensable compounds, promoters, inhibitors). The class given is biochemical, Dactylosporangium sp. RH1. To be noted: for Relative Activity: 80 mM TES pH 7.5, 30° C., 15 minutes, standard reaction mixture = 100; for activity of the enzyme in the presence of the ion, of the original activity: ion at 1 mM. As for the experimental part:
The reaction was initiated by addition of the enzyme and continued for 15 minutes at 30° C. The reaction was stopped by heating the reaction mixture at 100° C. for 2 minutes. […] The reaction was stopped by adding 30 μl of 1 N HCl to the reaction mixture, and the precipitates formed were removed therefrom by centrifugation and filtration.
The HPLC for the determination was carried out under the following conditions: […]

Substrate in data set [1]: O=C(O)[C@@H]1CCCN1
The experiment in a line: purified protein, by the assay type. As to conditions: other: 80 mM MES buffer (pH 6.5), 4 mM L-ascorbic acid, 2 mM ferrous sulfate.

Substrate in data set [2]: O=C(O)CCC(=O)C(=O)O
Description: purified protein, by the assay type. To be noted: other: 80 mM MES buffer (pH 6.5), 4 mM L-ascorbic acid, 2 mM ferrous sulfate.

Entries after “also recorded” stand apart in the source; their conditions may differ. Like-named read-outs stand apart in the source and are kept apart here.

These results are taken from US6617140B2.

For the molecule `[Zn+2]` [Zn^++], on L-proline-4-hydroxylase, the “inhibition of the enzyme activity/reaction (in words)” value is given as “inhibit the reaction; also recorded: inhibited” and the “activity of the enzyme in the presence of the ion, of the original activity” value is listed as 6%. The “Relative Activity” value at L-proline-4-hydroxylase (component added at 1 mM) was 6.
In the same order, the values of `[Cu+2]` [Cu^++] are “inhibit the reaction; also recorded: inhibited”, 13% and 13.
As to `O=C(O)CN(CCN(CC(=O)O)CC(=O)O)CC(=O)O` [EDTA, ethylenediaminetetraacetic acid], the “inhibition of the enzyme activity/reaction (in words)” value is given as “inhibit the reaction” against L-proline-4-hydroxylase and “inhibited” on L-proline-4-hydroxylase (listed as ethylenediaminetetraacetic acid). Further, the “activity of the enzyme in the presence of EDTA” value on L-proline-4-hydroxylase (5 mM EDTA) was “no activity of the enzyme was detected”. Also, the “Relative Activity” value at L-proline-4-hydroxylase (component added at 5 mM) stood at 0.
Take `O=C1O[C@H]([C@@H](O)CO)C(O)=C1O` [L-ascorbic acid]: the “promotion of the enzyme activity/reaction (in words)” value on L-proline-4-hydroxylase is listed as “promotes the reaction”; at L-proline-4-hydroxylase (listed as Ascorbic acid) it was “promotes the activity of the enzyme”; on L-proline-4-hydroxylase (listed as L-Ascorbic acid), “accelerates the activity of the enzyme”. The “Relative Activity” value at L-proline-4-hydroxylase (component not added (omitted)) was 51.
`O=C(O)CCC(=O)C(=O)O` [2-ketoglutaric acid]: the “need of the component for the enzyme reaction (in words)” value (shortened to “need of the component”) at L-proline-4-hydroxylase was “indispensable”. Moreover, the “Relative Activity” value on L-proline-4-hydroxylase (component not added (omitted)) is reported as 0.
In the case of `[Fe+2]` [Fe^++], the “need of the component” value on L-proline-4-hydroxylase was “indispensable”. On L-proline-4-hydroxylase (component not added (omitted)), the “Relative Activity” value stood at 0.
On to Catalase, for which the “Relative Activity” value with L-proline-4-hydroxylase (component not added (omitted)) is given as 93.
Regarding `O=C(O)[C@@H]1CCCN1` [L-proline], the “need of the component” value at L-proline-4-hydroxylase is reported as “indispensable”. The “Relative Activity” value at L-proline-4-hydroxylase (component not added (omitted)) was determined as 0.

B1: L-proline-4-hydroxylase (Dactylosporangium salmoneum) (protein)
chain: MLTPTELKQYREAGYLLIEDGLGPREVDCLRRAAAALYAQDSPDRTLEKDGRTVRAVHGCHRRDPVCRDLVRHPRLLGPAMQILSGDVYVHQFKINAKAPMTGDVWPWHQDYIFWAREDGMDRPHVVNVAVLLDEATHLNGPLLFVPGTHELGLIDVERRAPAGDGDAQWLPQLSADLDYAIDADLLARLTAGRGIESATGPAGSILLFDSRIVHGSGTNMSPHPRGVVLVTYNRTDNALPAQAAPRPEFLAARDATPLVPLPAGFALAQPV
Take B1: the Km in data set [1] was 270 µM; in data set [2] it was 550 µM.

The term Km denotes the concentration of substrate that gives half-maximal velocity.
